Laboratory results: patent US12435128B2, “Method for predicting therapeutic effect of LSD1 inhibitor based on expression of INSM1” (TAIHO PHARMACEUTICAL CO., LTD., priority 2017, dated 2025)

The molecules below were run on HEL cells (human acute myelocytic leukemia cell lines) (assay: Cell-growth inhibition test: HEL cells). Settings: HEL cells; read-out: IC50 (nM), Cell-Growth Inhibition Test: HEL Cells.
Type: cell-based
Protocol: (§1) Under the following conditions, an in vitro cell-growth inhibition test was performed with respect to HEL cells (human acute myelocytic leukemia cell lines), NCI-H1417 cells (human small-cell lung cancer cell lines), and NCI-H146 cells (human small-cell lung cancer cell lines).
(§2) The cells with the Example compound or with dimethylsulfoxide alone were cultured at 37° C. in a 5% carbon-dioxide-containing incubator for 5 days (HEL cells) or 10 days (NCI-H1417 cells and NCI-H146 cells). After culture, the plate was allowed to stand at room temperature for 30 minutes, and 100 μL of the supernatant was removed from each well to leave 100 μL of the cell culture solution. To each well containing the remaining 100 μL of the cell culture solution, the same amount of CellTiter-Glo 2.0 Assay (Promega, Cat #: G9242) was added. The microplate was shaken with a plate mixer for 1 minute and then allowed to stand in a dark place for 10 minutes. Thereafter, the luminescence intensity of viable cells in each well was measured using a microplate reader (PerkinElmer, EnSpire). […] Cell growth rate(%)=T/C×100 • T: The luminescence intensity in a well to which the test compound was added (count per second) • C: The luminescence intensity in a well to which dimethylsulfoxide alone was added (count per second)

IC50	Structure (SMILES)
3.5 nM	Cn1ncc2cc(-c3ccc(C(=O)N4[C@@H]5CC[C@H]4C[C@H](N)C5)cc3-c3ccc(C#N)c(F)c3)c(F)cc21 [Example 24, 4-[5-[(3-exo)-3-amino-8-azabicyclo[3.2.1]octane-8-carbonyl]-2-(6-fluoro-1-methyl-indazol-5-yl)phenyl]-2-fluoro-benzonitrile]
0.27 nM	Cc1ccc(-c2ccc(C(=O)N3C4CCC3CC(N)C4)cc2-c2ccc(C#N)c(F)c2)c(F)c1F (stereo not drawn) [Example 144, 5′-((3-endo)-3-amino-8-azabicyclo[3.2.1]octane-8-carbonyl)-2″,3,3″-trifluoro-4″-methyl-[1,1′:2′,1″-terphenyl]-4-carbonitrile]
5.29 nM	Cn1cnc2cc(-c3ccc(C(=O)N4[C@@H]5CC[C@H]4C[C@@H](N)C5)cc3-c3ccc(C#N)c(F)c3)c(F)c(F)c21 [Example 126, 4-[5-[(3-endo)-3-amino-8-azabicyclo[3.2.1]octane-8-carbonyl]-2-(6,7-difluoro-1-methyl-benzimidazol-5-yl)phenyl]-2-fluoro-benzonitrile]
11 nM	Cc1ccc(-c2ccc(C(=O)N3CC[C@H](N)C3)cc2-c2ccc([N+](=O)[O-])cc2)cc1 [Example 99, [(35)-3-aminopyrrolidin-1-yl]-[3-(4-nitrophenyl)-4-(p-tolyl)phenyl]methanone]
5.74 nM	N#Cc1ccc(-c2cc(C(=O)N3[C@@H]4CC[C@H]3C[C@H](N)C4)ccc2-c2ccc3cccnc3c2F)cc1F [Example 105, 4-[5-[(3-exo)-3-amino-8-azabicyclo[3.2.1]octane-8-carbonyl]-2-(8-fluoro-7-quinolyl)phenyl]-2-fluoro-benzonitrile]
5.7 nM	CN1CCOc2cc(-c3ccc(C(=O)N4C5CCC4CC(N)C5)cc3-c3ccc(C#N)c(F)c3)ccc21 (stereo not drawn) [Example 128, 4-[5-[(3-endo)-3-amino-8-azabicyclo[3.2.1]octane-8-carbonyl]-2-(4-methyl-2,3-dihydro-1,4-benzoxazin-7-yl)phenyl]-2-fluoro-benzonitrile]

Same assay, conditions: Homo sapiens, HEL, read-out: IC50 (nM), Cell-Growth Inhibition Test: HEL Cells

Structure (SMILES)	IC50
N#Cc1ccc(-c2cc(C(=O)N3CC[C@H](N)C3)ccc2-c2ccc(C3(C4(O)CC4)CC3)cc2)cc1 [Example 68, 4-[5-[(3S)-3-aminopyrrolidine-1-carbonyl]-2-[4-[1-(1-hydroxycyclopropyl)cyclopropyl]phenyl]phenyl]benzonitrile]	23.9 nM
COCCc1ccc(-c2ccc(C(=S)N3CC[C@H](N)C3)cc2-c2ccc(C#N)c(F)c2)c(F)c1 [Example 94, 4-[5-[(3S)-3-aminopyrrolidine-1-carbothioyl]-2-[2-fluoro-4-(2-methoxyethyl)phenyl]phenyl]-2-fluoro-benzonitrile]	29.4 nM
N#Cc1ccc(-c2cc(C(=O)N3CC[C@H](N)C3)ccc2-c2ccc(CC3(O)CC3)cc2)cc1 [Example 59, 4-[5-[(3S)-3-aminopyrrolidine-1-carbonyl]-2-[4-[(1-hydroxycyclopropyl)methyl]phenyl]phenyl]benzonitrile]	32 nM
CN(C)c1ccc(-c2ccc(C(=O)N3CC[C@H](N)C3)cc2-c2ccc(C#N)c(F)c2)cn1 [Example 100, 4-[5-[(3S)-3-aminopyrrolidine-1-carbonyl]-2-[6-(dimethylamino)-3-pyridyl]phenyl]-2-fluoro-benzonitrile]	12.8 nM
Cc1ccc(-c2ccc(C(=O)N3CCC4(CNC4)C3)cc2-c2ccc(C#N)cc2)cc1 [Example 5, 4-[5-(2,7-diazaspiro[3.4]octane-7-carbonyl)-2-(p-tolyl)phenyl]benzonitrile]	34.8 nM
CN1CCc2cc(-c3ccc(C(=O)N4CC[C@H](N)C4)cc3-c3ccc(C#N)c(F)c3)ccc21 [Example 117, 4-[5-[(3S)-3-aminopyrrolidine-1-carbonyl]-2-(1-methylindolin-5-yl)phenyl]-2-fluoro-benzonitrile]	5.54 nM
CC(C)(O)Cn1ccc2cc(-c3ccc(C(=O)N4CC5CNCC5C4)cc3-c3ccc(C#N)c(F)c3)c(F)c(F)c21 (centres unmarked) [Example 203, 2′-(6,7-difluoro-1-(2-hydroxy-2-methylpropyl)-1H-indol-5-yl)-3-fluoro-5′-(octahydropyrrolo[3,4-c]pyrrole-2-carbonyl)-[1,1′-biphenyl]-4-carbonitrile]	2.45 nM
CC(C)(O)Cn1ccc2cc(-c3ccc(C(=O)N4[C@H]5CC[C@@H]4[C@H](N)C5)cc3-c3ccc(C#N)c(F)c3)c(F)cc21 (single isomer, unassigned; isomer-b) [Example 171]	0.08 nM

Same assay, conditions: read-out: IC50 (nM), Cell-Growth Inhibition Test: HEL Cells

Structure (SMILES)	IC50
Cn1nnc2cc(-c3ccc(C(=O)N4[C@@H]5CC[C@H]4C[C@@H](N)C5)cc3-c3ccc(C#N)c(F)c3)c(F)c(F)c21 [Example 145, 5′-((3-endo)-3-amino-8-azabicyclo[3.2.1]octane-8-carbonyl)-2′-(6,7-difluoro-1-methyl-1H-benzo[d][1,2,3]triazol-5-yl)-3-fluoro-[1,1′-biphenyl]-4-carbonitrile]	1.81 nM
COc1c(F)c(-c2ccc(C(=O)N3[C@@H]4CC[C@H]3C[C@@H](N)C4)cc2-c2ccc(C#N)c(F)c2)cc2cnn(CC(C)(C)O)c12 [Example 186, 5′-((3-endo)-3-amino-8-azabicyclo[3.2.1]octane-8-carbonyl)-3-fluoro-2′-(6-fluoro-1-(2-hydroxy-2-methylpropyl)-7-methoxy-1H-indazol-5-yl)-[1,1′-biphenyl]-4-carbonitrile]	6.3 nM
CC(C)(O)Cn1ncc2cc(-c3ccc(C(=O)N4[C@@H]5CC[C@H]4C[C@@H](N)C5)cc3-c3ccc(C#N)c(F)c3)c(F)c(F)c21 [Example 188, 5′-((3-endo)-3-amino-8-azabicyclo[3.2.1]octane-8-carbonyl)-2′-(6,7-difluoro-1-(2-hydroxy-2-methylpropyl)-1H-indazol-5-yl)-3-fluoro-[1,1′-biphenyl]-4-carbonitrile]	5.95 nM
Cn1cc(C(=O)O)c2cc(-c3ccc(C(=O)N4[C@@H]5CC[C@H]4[C@@H](N)C5)cc3-c3ccc(C#N)c(F)c3)c(F)cc21 (single isomer, unassigned) [Example 224]	46.2 nM
CCn1nnc2cc(-c3ccc(C(=O)N4[C@@H]5CC[C@H]4C[C@H](N)C5)cc3-c3ccc(C#N)c(F)c3)c(F)cc21 [Example 160, 5′-((3-endo)-3-amino-8-azabicyclo[3.2.1]octane-8-carbonyl)-2′-(1-ethyl-6-fluoro-1H-benzo[d][1,2,3]triazol-5-yl)-3-fluoro-[1,1′-biphenyl]-4-carbonitrile]	7.03 nM
CC(C)n1c(=O)sc2cc(-c3ccc(C(=O)N4C5CCC4CC(N)C5)cc3-c3ccc(C#N)c(F)c3)ccc21 (stereo not drawn) [Example 138, 5′-((3-endo)-3-amino-8-azabicyclo[3.2.1]octane-8-carbonyl)-3-fluoro-2′-(3-isopropyl-2-oxo-2,3-dihydrobenzo[d]thiazol-6-yl)-[1,1′-biphenyl]-4-carbonitrile]	0.9 nM
CC(C)(C)n1nnc2cc(-c3ccc(C(=O)N4C5CCC4CC(N)C5)cc3-c3ccc(C#N)c(F)c3)c(F)cc21 (stereo not drawn) [Example 139, 5′-((3-endo)-3-amino-8-azabicyclo[3.2.1]octane-8-carbonyl)-2′-(1-(tert-butyl)-6-fluoro-1H-benzo[d][1,2,3]triazol-5-yl)-3-fluoro-[1,1′-biphenyl]-4-carbonitrile]	16.9 nM

The molecules below were run on NCI-H1417 cells (human small-cell lung cancer cell lines) (assay: Cell-growth inhibition test: NCI-H1417 cells). Settings: Homo sapiens, NCI-H1417, read-out: IC50 (nM), Cell-Growth Inhibition Test: NCI-H1417 Cells.
Type: cell-based
Protocol: as §1, §2

Structure (SMILES)	IC50
Cn1ccc2cc(-c3ccc(C(=O)N4CC[C@H](N)C4)cc3-c3ccc(C#N)c(F)c3)c(F)cc21 [Example 134, (S)-5′-(3-aminopyrrolidine-1-carbonyl)-3-fluoro-2′-(6-fluoro-1-methyl-1H-indol-5-yl)-[1,1′-biphenyl]-4-carbonitrile]	0.93 nM
Cn1nnc2cc(-c3ccc(C(=O)N4CC[C@H](NC5CCC5)C4)cc3-c3ccc(C#N)c(F)c3)c(F)cc21 [Example 116, 4-[5-[(3S)-3-(cyclobutylamino)pyrrolidine-1-carbonyl]-2-(6-fluoro-1-methyl-benzotriazol-5-yl)phenyl]-2-fluoro-benzonitrile]	29.5 nM

Same assay, conditions: NCI-H1417 cells; read-out: IC50 (nM), Cell-Growth Inhibition Test: NCI-H1417 Cells

IC50	Structure (SMILES)
18.2 nM	N#Cc1ccc(-c2cc(C(=O)N3C4CCC3CC(N)C4)ccc2-c2ccc3cccnc3c2)cc1F (stereo not drawn) [Example 107, 4-[5-[(3-exo)-3-amino-8-azabicyclo[3.2.1]octane-8-carbonyl]-2-(7-quinonyl)phenyl]-2-fluoro-benzonitrile]
4.4 nM	CC(C)(O)Cc1ccc(-c2ccc(C(=O)N3C4CCC3CC(N)C4)cc2-c2ccc(C#N)c(F)c2)c(F)c1 (stereo not drawn) [Example 28, 4-[5-[(3-exo)-3-amino-8-azabicyclo[3.2.1]octane-8-carbonyl]-2-[2-fluoro-4-(2-hydroxy-2-methyl-propyl)phenyl]phenyl]-2-fluoro-benzonitrile]

Same assay, conditions: read-out: IC50 (nM), Cell-Growth Inhibition Test: NCI-H1417 Cells

Structure (SMILES)	IC50
CC(C)(O)Cn1ccc2cc(-c3ccc(C(=O)N4C5CCC4CC(N)C5)cc3-c3ccc(C#N)c(F)c3)c(F)cc21 (stereo not drawn) [Example 136, 5′-((3-endo)-3-amino-8-azabicyclo[3.2.1]octane-8-carbonyl)-3-fluoro-2′-(6-fluoro-1-(2-hydroxy-2-methylpropyl)-1H-indol-5-yl)-[1,1′-biphenyl]-4-carbonitrile]	2.39 nM
